One data set has as its target T1, HDAC8 (Homo sapiens, UniProt Q9BY41).
T1 construct: purchased Eurofins Pharma Discovery Services 2247
T1 sequence (Q9BY41 1-377): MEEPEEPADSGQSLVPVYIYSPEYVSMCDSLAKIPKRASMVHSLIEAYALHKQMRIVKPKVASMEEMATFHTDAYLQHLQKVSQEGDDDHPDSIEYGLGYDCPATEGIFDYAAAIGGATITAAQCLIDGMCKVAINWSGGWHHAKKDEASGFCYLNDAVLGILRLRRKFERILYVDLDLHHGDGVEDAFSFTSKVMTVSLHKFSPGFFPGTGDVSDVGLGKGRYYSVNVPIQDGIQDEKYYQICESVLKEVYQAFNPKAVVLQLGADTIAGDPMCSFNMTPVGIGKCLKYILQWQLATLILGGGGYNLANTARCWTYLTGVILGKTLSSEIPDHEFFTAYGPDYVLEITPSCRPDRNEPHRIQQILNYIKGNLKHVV
Description: HDAC enzymatic activity (Eurofins). The format is biochemical. As to conditions: Class I; ACY-1083 mean of two separate measurements, Ricolinostat and Tubastatin A one measurement.

The test system of data set [1] is COPD HBEC ALI cultures. Description: TGF-β1 challenge in ALI, FITC-dextran permeability. The format is cell-based, human. As to conditions: 10 μM pre-treatment 3 days, TGF-β 0.4, 2 and 10 ng/ml for 48 hours, two COPD donors. As for the experimental part:
(§1) The paracellular permeability was determined by using fluorescein isothiocyanate labeled 4kD-dextran (Sigma-Aldrich, St. Louis, USA). 18 hours after addition of 0.2 mg FITC-dextran in 200 μL medium to the apical side of the ALI cultures, the fluorescence in the basolateral medium was measured using PHERAstar FSX (excitation 485 nm and emission 520 nm) (BMG LABTECH, Ortenberg, Germany). The time point was chosen for optimal window in the assays as well as practical reasons and has been kept consistent in between different stimulations throughout this work. Data was plotted as fold-change of 0.1% DMSO control.
Permeability was measured after 48 hours.

Data set [2] deals with COPD HBEC ALI cultures. Put plainly: Whole cigarette smoke (WCS) challenge in ALI, FITC-dextran permeability. As to conditions: 10 μM started after first smoke exposure, 4 exposures in 2 days, all concentrations except the highest (1, 0.5 and 0.2 l/min dilution), one COPD donor, exploratory. The class given is cell-based, human. As for the experimental part:
as §1
Whole cigarette smoke (WCS) experiments were performed using the Smoking Robot VC 10® S-TYPE (Vitrocell, Waldkirch, Germany). The Vitrocell smoke robot delivers either WCS or humidified air to the apical surface of the cell layers. Briefly, inserts with fully differentiated HBEC in ALI from one COPD donor were placed in the Vitrocell smoke chamber filled with DMEM medium (Thermo Fisher Scientific) and CS or humidified air was puffed onto the apical surface. ISO Puff Standard was used with each CS exposure consisting of two 3R4F Kentucky research cigarettes (one 35 ml puff every 60 seconds). Cells were exposed to WCS four times during two days with a minimum of two hours elapsed between smoke exposures. […] Permeability was measured 20 hours after the last smoke session.

In data set [3] the test system is COPD HBEC ALI cultures. Description: Cytokine release in basolateral supernatants (MSD), TNF challenge. The format is cell-based, human. As to conditions: 10 μM, TNF 5, 20 and 50 ng/ml, day seven. As for the experimental part: TEER and permeability were measured after seven days.
To assess cytokines released, basolateral supernatants were collected on day seven and immediately frozen at -80°C until MSD analysis of IL-6, CCL2 and CXCL10. In short, U-PLEX MSD plates (Mesoscale Discovery, Rockville, Maryland, USA) were coated, washed and stored overnight. Standard curves were prepared and added in duplicates on each plate. Supernatants were thawed on ice and added to the plates, which were incubated on an orbital shaker for one hour before sulfo-tagged antibodies were added and incubated for another hour. Plates were washed, read buffer added and read on MESO SECTOR S 600 (Mesoscale Discovery, Rockville, Maryland, USA). Data was plotted as fold change to DMSO control.

For data set [4], the system named is COPD HBEC ALI cultures. Description: AB/PAS staining and quantification of cellular features from IHC sections, TNF challenge. The format is cell-based, human. The protocol: Eight days post-treatment, HBEC ALI-cultures were fixed in 4% paraformaldehyde for fifteen minutes and washed three times in PBS. Dehydration in ethanol and xylene followed by paraffin (Merck, New Jersey, USA) infiltration was done with a short program for biopsies (1 hour 55 minutes) on a Microm STP 120 Spin Tissue Processor (Thermo Fisher Scientific). Cell layers were embedded in paraffin and 4 μm thick sections were made using a Leica RM2165 microtome (Leica, Wetzlar, Germany). Alcian Blue/Periodic Acid-Schiff (AB/PAS) with Haematoxylin staining were performed using standard protocols on a Leica ST5020. After staining, the sections were dehydrated in ethanol and xylene, mounted with Pertex mounting medium (Histolab, Göteborg, Sweden) and scanned with a Aperio Scanscope slide scanner (Leica Biosystems, Buffalo Grove, USA).
IHC images were analyzed in HALO v3.1 (Indica Labs). For all analyses, images were annotated manually to exclude out of focus and damaged areas, and a random forest classifier was applied to intact areas of the sections to detect epithelial areas. All following analyses were done in epithelial areas only. For goblet cell counting, algorithm CytoNuclear 2.0.9 was used to segment cells based on nuclear staining and categorize them as AB/PAS (mucin) positive and negative cells based on cytoplasmic AB staining. Goblet cell counting was represented as the percentage of AB positive cells of total cells.
To measure epithelial thickness, the apical and basal sides of the epithelium in the sections were manually delineated using a pen annotation tool. Distance between paired apical and basal annotations was measured every 10 μm along the epithelium, and recorded in sequence as epithelial thickness.
To measure intraepithelial and intercellular AB staining, algorithm Area Quantification v2.1.7 was used. Two thresholds were applied to capture AB staining: a lower one to detect all AB staining in both goblet cells and intercellular areas, and a higher one to detect the stronger AB staining inside goblet cells only. Intercellular AB area was calculated by subtracting goblet AB staining (higher threshold) from total AB staining (by lower threshold).

Data set [5] relates to COPD HBEC ALI cultures. Description: Mucociliary clearance (bead tracking), TNF challenge. The format is cell-based, human. As to conditions: TNF 20 ng/ml, day ten, 3 COPD donors, p = 0.0026. As for the experimental part:
In the TNF (20 ng/ml) challenged cultures, the apical surfaces were washed with pre-warmed PBS the day before addition of 50 μL of CountBright Absolute Counting beads (Invitrogen, Carlsbad, CA, USA) diluted 1:10 000 in PBS with Mg^2+ and Ca^2+. Inserts were transferred to a 12-well glass bottom plate (Cellvis, Mountain View, USA) and monitored in a Zeiss LSM 880 (Carl Zeiss AG, Oberkochen, Germany) at 37°C. Three regions in each well of each condition in three COPD donors were filmed and analyzed. Beads were tracked in the ImageJ software with the Fiji plugin Tracking and the mean velocity of each bead was plotted.

The subject of data set [6] is deacetylation of α-tubulin. Also noted: method as in PMID 28267067. As to conditions: read-out: cell potency (IC50), inhibition of deacetylation of α-tubulin; cited from earlier work.

By IC50 is commonly meant the midpoint of a concentration-inhibition curve. Consider ACY-1083, for which the IC50 against HDAC8 amounted to 15.8 µM. In addition, in the data set on COPD HBEC ALI cultures [1], the “paracellular permeability after TGF-β challenge” value is “decreased it at all concentrations”. In the data set on COPD HBEC ALI cultures [2], the “paracellular permeability after WCS challenge” value was “decrease permeability”. Moreover, in the data set with COPD HBEC ALI cultures [3], the “CCL2 protein induction in basolateral supernatant” value is recorded as “reduced”, the “CXCL10 protein induction in basolateral supernatant” value is listed as “reduced” and the “IL-6 protein induction in basolateral supernatant” value is recorded as “reduced”. In the data set with COPD HBEC ALI cultures [4] (TNF 20 ng/ml + ACY-1083, p<0.0001), the “intraepithelial and intercellular AB area” value is listed as “reduced to the no-TNF level”. Further, in the data set on COPD HBEC ALI cultures [4] (TNF 20 ng/ml + ACY-1083, vs no-TNF DMSO control or TNF DMSO culture), the “percentage of goblet cells” value is given as “increased but did not differ significantly”. In addition, the “epithelial thickness variation (variance in height)” value in the data set with COPD HBEC ALI cultures [4] (TNF-challenged wells, four donors, p<0.001) is listed as “smaller”. In addition, the goblet cell percentage entry with COPD HBEC ALI cultures [4] (only ACY-1083 vs no-TNF DMSO) was “No difference”. Also, the “bead velocity (mucociliary clearance)” value in the data set with COPD HBEC ALI cultures [5] is given as “significantly protected from reduction in speed”. Besides, the IC50 in data set [6] was 0.03 to 0.1 µM.

(Values after article PMC9555642 (PLoS ONE, 2022).)
